From patent publication US10300067B2, “Tetrahydropyridopyrimidine compound or salt thereof” (TAIHO PHARMACEUTICAL CO., LTD., priority 2014, dated 2019)
Read-outs that look alike come from different tables or passages of the source.

Legend:
human androgen receptor = human androgen receptor (Homo sapiens (Human), UniProt P10275); test: Antagonist activity for AR (pMMTV-luc reporter transcription activity in transfected COS-7 cells, DHT 1 nmol/L); format: cell-based; conditions: 50% transcription activity inhibition concentration; COS-7 cells with pMMTV-luc and pEX-hAR, DHT 1 nmol/L, 24 hours
Sequence of human androgen receptor (P10275 whole entry): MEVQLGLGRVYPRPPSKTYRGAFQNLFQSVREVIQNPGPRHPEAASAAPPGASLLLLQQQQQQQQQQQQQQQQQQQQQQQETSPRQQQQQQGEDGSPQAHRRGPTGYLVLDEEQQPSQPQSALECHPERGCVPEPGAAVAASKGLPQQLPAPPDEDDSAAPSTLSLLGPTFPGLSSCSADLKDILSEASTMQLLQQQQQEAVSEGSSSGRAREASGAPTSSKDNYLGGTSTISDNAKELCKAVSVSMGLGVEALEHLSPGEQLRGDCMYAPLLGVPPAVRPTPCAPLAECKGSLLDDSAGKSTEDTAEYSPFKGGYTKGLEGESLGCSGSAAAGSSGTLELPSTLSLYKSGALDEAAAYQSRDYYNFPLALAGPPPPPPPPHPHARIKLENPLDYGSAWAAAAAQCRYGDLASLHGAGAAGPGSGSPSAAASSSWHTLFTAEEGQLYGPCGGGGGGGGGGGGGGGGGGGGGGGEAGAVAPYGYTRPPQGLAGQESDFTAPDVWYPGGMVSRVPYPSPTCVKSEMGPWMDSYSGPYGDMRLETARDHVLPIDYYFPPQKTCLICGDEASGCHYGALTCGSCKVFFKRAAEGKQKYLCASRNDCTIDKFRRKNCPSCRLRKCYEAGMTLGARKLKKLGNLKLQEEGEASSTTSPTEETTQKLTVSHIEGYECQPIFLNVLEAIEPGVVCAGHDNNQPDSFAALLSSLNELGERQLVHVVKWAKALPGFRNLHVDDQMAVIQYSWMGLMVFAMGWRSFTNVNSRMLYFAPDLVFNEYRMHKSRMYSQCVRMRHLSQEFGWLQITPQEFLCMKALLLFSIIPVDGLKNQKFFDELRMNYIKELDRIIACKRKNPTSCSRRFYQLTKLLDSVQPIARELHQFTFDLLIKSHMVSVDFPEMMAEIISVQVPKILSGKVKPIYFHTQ
Outline: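 COS-7 cells co-transfected with pMMTV-luc reporter and CMV-driven human AR expression vector, cultured overnight in phenol red-free RPMI1640 with 10% charcoal-treated FBS. Antagonism measured against 1 nmol/L DHT by luciferase transcription activity.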

[1] = test system: Human prostate cancer cells LNCaP; test: Androgen-dependent inhibitory activity on proliferation of prostate cancer cells; format: cell-based; conditions: read-out: GI50 value
Experimental: Human prostate cancer cells LNCaP (Non-Patent Literature 5) having […] androgen receptor gene were seeded in a clear bottom 96 well microplate (BD) at 4.0×10^3/well with phenol red free RPMI1640 containing 5% DCC-FBS (hereinbelow, the medium is referred to as an evaluation medium), and then cultured overnight. The culture was added with the evaluation medium containing DHT (final concentration of DHT: 10 nmol/L) or the evaluation medium containing the compound of Examples or the compound of Comparative Examples (final concentration of the compound of Examples or the compound of Comparative Examples: 10, 30, 100, 300, 1000, 3000, 10000, or 30000 nmol/L), followed by culture for 72 hours. Then, the number of viable cells was counted. The number of viable cells was measured by using Cell Counting Kit-8 (DOJINDO LABORATORIES).

[2] = test system: AR positive human prostate cancer cells VCaP; test: Agonist activity for AR (cell proliferation rate of VCaP cells); format: cell-based; conditions: 72 hours, 2 to 10000 nmol/L, more than 10% at any concentration = agonist activity for AR
Outline: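 VCaP cells seeded at 1.5×10^4/well in phenol-red-free RPMI1640 with 5% DCC-FBS, then exposed 72 h to compound at 2–10000 nmol/L (9 concentrations). Viable cells counted by CellTiter-Glo; proliferation rate (%) relative to medium-only control, agonist activity called when >10% at any concentration.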

androgen receptor = androgen receptor (Homo sapiens (Human), UniProt P10275, T878A); test: Activity of reducing expression level of androgen receptor (Western blotting of LNCaP cell lysate); format: cell-based; conditions: 48 hours
Sequence of androgen receptor (P10275 whole entry T878A): as the sequence (P10275 whole entry) above, with T878A counted along it
Outline: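 LNCaP prostate cancer cells (AR T878A) in phenol red-free RPMI1640 with 5% FBS treated with compound at final 10000 nmol/L for 48 h. Cell lysates analysed by Western blot with anti-AR antibody; band quantified by chemiluminescence.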

LNCaP-Xeno-IL-6 cells = test: Anti-tumor activity in in vivo model of castration resistant prostate cancer; conditions: castrated male nude mice, oral, every day for 2 weeks, daily dose 100 mg/kg/day
Experimental: From the AR positive human prostate cancer cells LNCaP, castration resistant prostate cancer cells, LNCaP-Xeno-IL-6 cells, were established based on the scientific paper (Clin Cancer Res, 2001 7:2941-8) (in the paper, the cells have been reported as LNCaP-IL-6+ cells) and used for the in vivo test. The LNCaP-Xeno-IL-6 cells were implanted subcutaneously in male nude mice, and the castration treatment was performed when the tumor volume reached about 200 mm^3. After the castration, the vehicle only (0.5% HPMC) or the compound of Examples suspended in the vehicle was orally administered to the mice every day for 2 weeks. The compound of Examples was administered such that there was no difference in an exposure amount between the compounds. After the administration for 2 weeks, the tumor volume of each mouse was recorded and the average tumor volume of the group administered with the evaluation compound relative to the average tumor volume of the group administered only with the vehicle, that is, T/C (%), was calculated based on the following formula. T/C (%)=(Average tumor volume of evaluation compound group)/(Average tumor volume of vehicle administration group)

[3] = 50% proliferation inhibition concentration, DHT 10 nmol/L, 72 hours

SMILES	IC50 (human androgen receptor) [nM]	GI50 [1, 3] [nM]	Cell proliferation rate (%) [2] [%]	10 μM AR expression reducing activity (androgen receptor)	T/C (%) (LNCaP-Xeno-IL-6 cells)	GI50 ([1]; 72 h) [nM]
CC(C)(O)c1ccc(Nc2ncnc3c2CCN(c2ccc(C#N)c(C(F)(F)F)c2)C3)nc1F [Example 5, 4-(4-((6-fluoro-5-(2-hydroxypropan-2-yl)pyridin-2-yl)amino)-5,6-dihydropyrido[3,4-d]pyrimidin-7 (8H)-yl)-2-(trifluoromethyl)benzonitrile]	190	600	−5.5	reduced (When the AR expression reducing activity is 50% or more, it is described as “reduced”)	–	–
CC(C)(O)c1ccc(Nc2ncnc3c2CCN(c2ccc(C#N)c(Cl)c2)C3)nn1 [Example 6, 2-chloro-4-(4-((6-(2-hydroxypropan-2-yl)pyridazin-3-yl)amino)-5,6-dihydropyrido[3,4-d]pyrimidin-7 (8H)-yl)benzonitrile]	70	400	−0.7	reduced (When the AR expression reducing activity is 50% or more, it is described as “reduced”)	29	–
CC(C)(O)c1ccc(Nc2ncnc3c2CCN(c2ccc(C#N)c(C(F)(F)F)c2)C3)nn1 [Example 10, 4-(4-((6-(2-hydroxypropan-2-yl)pyridazin-3-yl)amino)-5,6-dihydropyrido[3,4-d]pyrimidin-7 (8H)-yl)-2-(trifluoromethyl)benzonitrile]	90	800	2.8	reduced (When the AR expression reducing activity is 50% or more, it is described as “reduced”)	–	–
CC(C)Oc1ccc(Nc2ncnc3c2CCN(c2ccc(C#N)c(C(F)(F)F)c2)C3)cn1 [Example 13, 4-(4-((6-isopropoxypyridin-3-yl)amino)-5,6-dihydropyrido[3,4-d]pyrimidin-7(8H)-yl)-2-(trifluoromethyl)benzonitrile]	110	600	2.8	reduced (When the AR expression reducing activity is 50% or more, it is described as “reduced”)	–	–
CC(C)(COc1ccc(Nc2ncnc3c2CCN(c2ccc(C#N)c(C(F)(F)F)c2)C3)cn1)n1cnnn1 [Example 16, 4-(4-((6-(2-methyl-2-(1H-tetrazol-1-yl)propoxy)pyridin-3-yl)amino)-5,6-dihydropyrido[3,4-d]pyrimidin-7(8H)-yl)-2-(trifluoromethyl)benzonitrile]	210	700	−1.5	reduced (When the AR expression reducing activity is 50% or more, it is described as “reduced”)	–	–
CC(C)(COc1ccc(Nc2ncnc3c2CCN(c2ccc(C#N)c(C(F)(F)F)c2)C3)nc1)n1cnnn1 [Example 17, 4-(4-((5-(2-methyl-2-(1H-tetrazol-1-yl)propoxy)pyridin-2-yl)amino)-5,6-dihydropyrido[3,4-d]pyrimidin-7(8H)-yl)-2-(trifluoromethyl)benzonitrile]	170	700	0.6	reduced (When the AR expression reducing activity is 50% or more, it is described as “reduced”)	–	–
CS(=O)(=O)N1CCN(CCCOc2ccc(Nc3ncnc4c3CCN(c3ccc(C#N)c(C(F)(F)F)c3)C4)cc2)CC1 [Example 18, 4-(4-((4-(3-(4-(methylsulfonyl)piperazin-1-yl)propoxy)phenyl)amino)-5,6-dihydropyrido[3,4-d]pyrimidin-7(8H)-yl)-2-(trifluoromethyl)benzonitrile]	360	1900	−4.6	reduced (When the AR expression reducing activity is 50% or more, it is described as “reduced”)	–	–
N#Cc1ccc(N2CCc3c(ncnc3Nc3ncc(S(=O)(=O)N4CCCOCC4)s3)C2)cc1C(F)(F)F [Example 20, 4-(4-((5-((1,4-oxazepan-4-yl)sulfonyl)thiazol-2-yl)amino)-5,6-dihydropyrido[3,4-d]pyrimidin-7 (8H)-yl)-2-(trifluoromethyl)benzonitrile]	100	2500	0.0	reduced (When the AR expression reducing activity is 50% or more, it is described as “reduced”)	–	–
CC(C)(O)CNC(=O)c1ccc(Nc2ncnc3c2CCN(c2ccc(C#N)c(C(F)(F)F)c2)C3)nn1 [Example 32, 6-((7-(4-cyano-3-(trifluoromethyl)phenyl)-5,6,7,8-tetrahydropyrido[3,4-d]pyrimidin-4-yl)amino)-N-(2-hydroxy-2-methylpropyl)pyridazine-3-carboxamide]	60	3100	−2.2	reduced (When the AR expression reducing activity is 50% or more, it is described as “reduced”)	–	–
CC(C)(O)CNC(=O)c1cnc(Nc2ncnc3c2CCN(c2ccc(C#N)c(C(F)(F)F)c2)C3)nc1 [Example 34, 2-((7-(4-cyano-3-(trifluoromethyl)phenyl)-5,6,7,8-tetrahydropyrido[3,4-d]pyrimidin-4-yl)amino)-N-(2-hydroxy-2-methylpropyl)pyrimidine-5-carboxamide]	700	3800	6.4	reduced (When the AR expression reducing activity is 50% or more, it is described as “reduced”)	–	–
N#Cc1ccc(N2CCc3c(ncnc3Nc3ccc(C(=O)NCc4nc(C(F)(F)F)cs4)cn3)C2)cc1C(F)(F)F [Example 36, 6-((7-(4-cyano-3-(trifluoromethyl)phenyl)-5,6,7,8-tetrahydropyrido[3,4-d]pyrimidin-4-yl)amino)-N-((4-(trifluoromethyl)thiazol-2-yl)methyl)nicotinamide]	170	300	−1.9	reduced (When the AR expression reducing activity is 50% or more, it is described as “reduced”)	–	–
C[C@@H](NC(=O)c1ccc(Nc2ncnc3c2CCN(c2ccc(C#N)c(C(F)(F)F)c2)C3)nc1)c1nnco1 [Example 38, (R)—N-(1-(1,3,4-oxadiazol-2-yl)ethyl)-6-((7-(4-cyano-3-(trifluoromethyl)phenyl)-5,6,7,8-tetrahydropyrido[3,4-d]pyrimidin-4-yl)amino)nicotinamide]	560	1100	−2.7	reduced (When the AR expression reducing activity is 50% or more, it is described as “reduced”)	–	–
C[C@@H](NC(=O)c1ccc(Nc2ncnc3c2CCN(c2ccc(C#N)c(C(F)(F)F)c2)C3)nc1)c1nnc(C(F)(F)F)o1 [Example 40, (R)-6-((7-(4-cyano-3-(trifluoromethyl)phenyl)-5,6,7,8-tetrahydropyrido[3,4-d]pyrimidin-4-yl)amino)-N-(1-(5-(trifluoromethyl)-1,3,4-oxadiazol-2-yl)ethyl)nicotinamide]	260	400	0.0	reduced (When the AR expression reducing activity is 50% or more, it is described as “reduced”)	–	–
CC(C)(O)C1CCN(C(=O)c2cnc(Nc3ncnc4c3CCN(c3ccc(C#N)c(C(F)(F)F)c3)C4)o2)CC1 [Example 42, 4-(4-((5-(4-(2-hydroxypropan-2-yl)piperidin-1-carbonyl)oxazol-2-yl)amino)-5,6-dihydropyrido[3,4-d]pyrimidin-7(8H)-yl)-2-(trifluoromethyl)benzonitrile]	340	–	−17.2	reduced (When the AR expression reducing activity is 50% or more, it is described as “reduced”)	–	1100
